# Test results reported in paper PMC5379127, “Plackett-Burman Design for rGILCC1 Laccase Activity Enhancement in Pichia pastoris: Concentrated Enzyme Kinetic Characterization” (Enzyme Research, 2017).
# System: T1, rGILCC1 laccase (GlLCC1)
# T1 construct: previously optimized synthetic gene in pGAPZalphaA (pGAPZαA-LacGluc-Stop, also pGAPZαA-GlucPost-Stop, clone 1), secreted by Pichia pastoris X33; concentrated culture supernatant (10 kDa membrane), not purified
# Test: spectrophotometric ABTS oxidation at […] nm, Hanes-Woolf
# Type: biochemical, Ganoderma lucidum
# Conditions: concentrated culture supernatant, not pure enzyme; 600 mM sodium acetate buffer, pH 4.5, 25°C; read-out: apparent Km
smiles,measurement,value
"CCn1c(=NN=c2sc3cc(S(=O)(=O)O)ccc3n2CC)sc2cc(S(=O)(=O)O)ccc21 [ABTS, 2,20-azino-bis(3-ethylbenzothiazoline-6-sulphonic acid)]",Km,53.6 µM
